Tests used:
[1] = species on record: Rattus norvegicus; experiment: animal or person; conditions: sc, read-out: Inhibition
Description: (§1) Inhibitory activity in apomorphine antagonism test at a dose of 20 mg/kg, sc

[2] = target: D(1A) dopamine receptor (Rattus norvegicus, UniProt P18901)
Description: Binding affinity against dopamine receptor D1

[3] = target: Muscarinic acetylcholine receptor
Description: Binding affinity against muscarinic (M) receptor

[4] = target: Serotonin 2 (5-HT2) receptor (Rattus norvegicus, UniProt P30994+P08909+P14842)
Description: Binding affinity against serotonin 5-hydroxytryptamine 2 receptor

[5] = species on record: Rattus norvegicus; experiment: animal or person; conditions: sc
Description: as §1

Sequence of D(1A) dopamine receptor (P18901 whole entry): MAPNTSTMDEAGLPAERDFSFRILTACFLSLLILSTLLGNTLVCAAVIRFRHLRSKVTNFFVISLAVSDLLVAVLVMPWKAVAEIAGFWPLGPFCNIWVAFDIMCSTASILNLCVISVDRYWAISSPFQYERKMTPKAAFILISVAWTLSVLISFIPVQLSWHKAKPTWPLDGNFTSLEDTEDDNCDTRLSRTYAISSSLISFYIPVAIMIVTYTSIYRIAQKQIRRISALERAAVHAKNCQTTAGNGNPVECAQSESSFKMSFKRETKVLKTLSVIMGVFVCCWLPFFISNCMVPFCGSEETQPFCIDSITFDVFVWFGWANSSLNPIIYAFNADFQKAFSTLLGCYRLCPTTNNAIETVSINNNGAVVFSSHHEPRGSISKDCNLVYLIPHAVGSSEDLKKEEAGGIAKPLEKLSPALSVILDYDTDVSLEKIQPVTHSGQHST

For `CN1CCN(C2=Nc3ccccc3Oc3ncccc32)CC1`, the inhibition in vivo at 20 mg/kg [1] was 0%, the Ki [2] was 2.4 µM and the “-Log Ki” value [3] was 5.47. For the same molecule, the “-Log Ki” value [4] was 5.85.

`CN1CCN(C2=Nc3cc(Cl)ccc3Oc3ncccc32)CC1` was tested, and the inhibition in vivo at 20 mg/kg [1] was 0%, the Ki [2] was 0.302 µM and the “-Log Ki” value [3] was 5.65. For the same molecule, the “-Log Ki” value [4] was 7.19.

With `CN1CCN(C2=Nc3cccnc3Oc3ccccc32)CC1` the inhibition in vivo at 20 mg/kg [1] was 0%, the “-Log Ki” value [3] was 6.07 and the “-Log Ki” value [4] was 4.65.

With `CN1CCN(C2=Nc3cccnc3Oc3ccc(Cl)cc32)CC1` the inhibition in vivo at 20 mg/kg [1] was 100%, the Ki [2] was 1.07 µM and the “-Log Ki” value [3] was 5.86. The “-Log Ki” value [4] was 7.35.

In the case of `CN1CCN(C2=Nc3cnccc3Sc3ccccc32)CC1`, the inhibition in vivo at 20 mg/kg [1] is reported as 0%, the Ki [2] is reported as 15.5 µM and the “-Log Ki” value [3] is reported as 6.68. The “-Log Ki” value [4] was 6.55.

`Cc1ccc2c(c1)N=C(N1CCN(C)CC1)c1cccnc1O2` was tested, and the inhibition in vivo at 20 mg/kg [1] was 0%, the Ki [2] was 0.759 µM and the “-Log Ki” value [3] was 5.42. The “-Log Ki” value [4] was 7.01.

With `CN1CCN(C2=Nc3ccccc3Sc3ncccc32)CC1` the inhibition in vivo at 20 mg/kg [1] was 0%, the Ki [2] was 1.62 µM and the “-Log Ki” value [3] was 5.61. For the same molecule, the “-Log Ki” value [4] was 6.29.

With `CN1CCN(C2=Nc3cccnc3Sc3ccc(Cl)cc32)CC1` the inhibition in vivo at 20 mg/kg [1] was 100%, the Ki [2] was 0.676 µM and the “-Log Ki” value [3] was 5.75. For the same molecule, the “-Log Ki” value [4] was 7.35.

For `CN1CCN(C2=Nc3cccnc3Sc3ccccc32)CC1`, the inhibition in vivo at 20 mg/kg [1] was 0%, the Ki [2] was 8.13 µM and the “-Log Ki” value [3] was 6.13. The “-Log Ki” value [4] was 5.94.

In the case of `CN1CCN(C2=Nc3ccccc3Sc3ccc(Cl)cc32)CC1` [CLOTHIAPINE], the ED50 [5] is reported as 0.72 mg/kg, the inhibition in vivo at 20 mg/kg [1] is reported as 100% and the “-Log Ki” value [4] is reported as 9.23.

Molecule `CN1CCN(C2=Nc3cc(Cl)ccc3Nc3ccccc32)CC1` [CLOZAPINE] has an inhibition in vivo at 20 mg/kg [1] of 0%.

In the case of `CN1CCN(C2=Nc3cc(F)ccc3Cc3ccccc32)CC1` [FLUPERLAPINE], the “-Log Ki” value [4] is reported as 8.41.

With `O=C(CCCN1CCC(O)(c2ccc(Cl)cc2)CC1)c1ccc(F)cc1` [HALOPERIDOL] the ED50 [5] was 0.14 mg/kg and the inhibition in vivo at 20 mg/kg [1] was 100%.

With `CN1CCN(C2=Nc3cc(Cl)ccc3Sc3ccccc32)CC1` [ISOCLOTHIAPINE] the “-Log Ki” value [4] was 8.38.

For `CN1CCN(C2=Nc3ccccc3Nc3ccc(Cl)cc32)CC1` [ISOCLOZAPINE], the ED50 [5] was 1.7 mg/kg.

— ChEMBL document CHEMBL1127331, “Pyridobenzoxazepine and pyridobenzothiazepine derivatives as potential central nervous system agents: synthesis and neurochemical study” (J Med Chem, 1994)
